According to PubChem BioAssay AID743394 (Broad Institute, 2014):
Activity calls are given as the source filed them.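 The calls were made as follows: active = 40% activation versus positive control reached by fitted dose-response curve at or below highest valid tested dose; inconclusive = poor fit quality, or flat fit with activation between 30% and 70%; inactive = the rest.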

Assay: inactive X chromosome reactivation in XiGFP fibroblasts, dose response, imaging, 68-5-11 mouse fibroblasts, GFP, cherry-pick (AID 743394);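 also: sensitizer 5-aza-dC present in the wells at 0.5 mM final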
Conditions: 68-5-11 mouse fibroblast XiGFP reporter, % GFP-positive imaging, 3 d; at 19.5 µM (top of the series); cells co-treated with 5-aza-dC sensitizer; scaled: neutral wells 0, ellipticine wells 100

| SMILES | activation |
| --- | --- |
| OC[C@@H]1Nc2ccc(C#Cc3ccccc3)cc2[C@H]2[C@@H]1CCN2Cc1nccs1 | 0.161% (inactive) |
| S=C(NCc1ccco1)Nc1cccc(Cl)c1Cl | -0.047% (inactive) |
| CC(NC(=O)c1ccccc1)C(=O)N/N=C/c1ccccc1 (centres undefined) | 0.535% (inactive) |
| CNc1ccc([N+](=O)[O-])cc1C(=O)O | 0.697% (inactive) |
| Cc1noc(C)c1S(=O)(=O)Nc1ccc2c(c1)C(=O)N([C@H](C)CO)C[C@H](C)[C@H](CN(C)C(=O)Nc1ccc(F)cc1)OCCCC[C@H](C)O2 | 0.022% (inactive) |
| Cc1ccc(Cn2ccsc2=NC(=O)CCl)cc1 | -0.035% (inactive) |
| CCCNNC(=O)C(O)(c1ccccc1)c1ccccc1 | -0.099% (inactive) |
| C[C@@H]1CCCCO[C@H](CN(C)C(=O)Nc2ccc(C(F)(F)F)cc2)[C@H](C)CN([C@H](C)CO)C(=O)c2cc(NC(=O)CCC(F)(F)F)ccc2O1 | 0.24% (inactive) |
| Oc1cccc(/C=N/NC(=S)NCCN2CCOCC2)c1O | -0.016% (inactive) |
| Cc1noc(C)c1NC(=O)N[C@H]1CC[C@H](CC(=O)N2CCN(C)CC2)O[C@H]1CO | 0.116% (inactive) |
| Cc1ccc(N2C(=O)C3C4C=CC(CNC(=S)N5CCN(c6ccccc6)CC5)(O4)C3C2=O)cc1 (centres undefined) | -0.008% (inactive) |
| Cc1ccc(NC(=O)COc2ccc(-c3nnco3)cc2)cc1S(=O)(=O)N1CCOCC1 | -0.044% (inactive) |
| CN(C)S(=O)(=O)c1cccc(C(=O)NCC2(N3CCOCC3)CCCCC2)c1 | -0.002% (inactive) |
| COc1cc(/C=C/c2ccc3cccc(O)c3n2)cc(OC)c1OC | -0.032% (inactive) |
| Cn1cc(C(=O)N/N=C/C(Br)=C/c2ccccc2)ccc1=O | -0.07% (inactive) |
| CC(=O)c1ccc(NS(=O)(=O)c2ccc(N/C=C/C(=O)c3ccc(F)cc3)cc2)cc1 | 0.351% (inactive) |
| CCOC(=O)N1CCN(Cc2cc(Cl)c3cccnc3c2O)CC1 | -0.05% (inactive) |

| SMILES | activation |
| --- | --- |
| COc1cccc2cc(C(=O)N(Cc3cccs3)CC3CCCO3)c(=O)oc12 (centres undefined) | -0.044% (inactive) |
| C[C@H](NC(=O)C[C@@H]1CC[C@H](NC(=O)Cc2ccccn2)[C@@H](CO)O1)c1ccccc1 | 0.019% (inactive) |
| C[C@@H]1ON(C)[C@H]2C[C@H]3c4cc(-c5cccc(F)c5)ccc4CCN3C(=O)[C@@H]12 | 0.187% (inactive) |
| COC(=O)c1c(NC(=O)c2ccccc2)sc2c1CC(C)(C)NC2(C)C | 0.021% (inactive) |
| CCN(CC)S(=O)(=O)c1ccc(Cl)c(NC(=O)COC(=O)c2c(C)noc2C)c1 | 0.03% (inactive) |
| Cc1ccc(Nc2nc(N)nc(COC(=O)C3=COCCO3)n2)cc1 | 0.004% (inactive) |
| CCOC(=O)/C(C#N)=C/C=C1/C=CC=CN1C | 0.071% (inactive) |
| Cc1cccc(-c2ccc([C@H]3[C@H](CO)N4CCCCN(C(=O)NC(C)C)C[C@@H]34)cc2)c1 | 0.105% (inactive) |
| O=C(c1ccc(S(=O)(=O)c2ccc(Cl)cc2)cc1)N1CCOCC1 | 0.117% (inactive) |
| C[C@@H]1CN([C@@H](C)CO)C(=O)c2ccccc2-c2ccccc2CO[C@@H]1CN(C)C(=O)Nc1ccc2c(c1)OCO2 | 0.081% (inactive) |
| NNc1nc2c(-c3ccc(F)cc3)nnn2c2ccccc12 | 0.731% (inactive) |
| COc1ccccc1CN1CC[C@H]2[C@H](CO)Nc3ccc(C#Cc4ccccc4)cc3[C@H]21 | 0% (inactive) |
| COc1ccc(C2=NOC3(CC(=O)N(c4ccc(F)cc4)C3=O)C2)cc1 (centres undefined) | 0.015% (inactive) |
| COc1ccc(NC(=O)Nc2ccc3c(c2)C(=O)N([C@H](C)CO)C[C@H](C)[C@H](CN(C)Cc2ccc4c(c2)OCO4)O3)cc1 | -0.031% (inactive) |
| Cc1ccccc1C1c2[nH]c3ccccc3c2CCN1Cc1cccn1-c1ncccn1 (centres undefined) | 0.097% (inactive) |
| Cc1ccc(S(=O)(=O)N2CCN(C(=O)COC(=O)c3ccccc3OC(F)F)CC2)c(C)c1 | -0.006% (inactive) |
| Cc1nnc(SCc2cc(=O)oc3ccc4ccccc4c23)n1Cc1ccccc1 | -0.027% (inactive) |
